One assay relates to OPM-2 cells. Briefly: Cell viability assay (OPM-2 cells), CCK-8. In kind it is cell-based. The note with it: Homo sapiens, OPM-2, 24 h, WST, 5% FBS, read-out: OPM2 (WST, 5% FBS). Here is the method:
Cell Viability Assay (OPM-2 Cells)
OPM-2 cells were obtained from Deutsche Sammlung von Mikroorganismen und Zellkulturen GmbH (DSMZ). […]
The effect of representative Compounds of the Disclosure on cell viability was determined using Cell Counting Kit-8 (CCK-8) assay (Shanghai Life iLab Bio Technology) according to the manufacturer's instructions. Each tested compound was serially diluted in culture medium, 100 μL of the compound dilution was added into 96-well plates. 100 μL of an OPM-2 cell suspension (20000 cells/well) in culture medium were seeded into the corresponding well of the plate and the cells were incubated at 37° C. in an atmosphere of 5% CO2 for 24 hours. In the next day, 20 μL of CCK-8 solution was added to each well of the plate and incubated for 4 hours.
The plates were read at 450 nm on the microplate spectrophotometer (SpectraMax plus 384, Molecular devices). The readings were normalized to the vehicle cells, and the IC50 was calculated by nonlinear regression analysis using GraphPad Prism 6 software.

Assay [1] concerns the target T1, Mcl-1 protein (residues 171-323) (Homo sapiens, UniProt Q07820).
T1 construct: Tag-free Mcl-1 protein (residues 171-323) was used in the FP assay
Nature of the assay: Inhibition of Mcl-1 by fluorescence polarization (FP) competitive binding assay. As to conditions: FAM-Bid tracer 2 nM, Mcl-1 20 nM, 30 min. Here is the method: Inhibition of Mcl-1 by Fluorescence Polarization (FP) Assay.
The method used a fluorescein labelled peptide (FAM-Bid) which binds to the Mcl-1 protein leading to an increased anisotropy measured in milli-polarization (mP) values using a plate reader.
A 10-points serial dilution of each compound was prepared in DMSO and 5 μL solution was transferred into flat bottomed, 96-well back plate (final DMSO concentration 5%). 120 μL of Buffer (PBS, 0.01% BGG (Sigma Cat. #SRE0011), 0.01% Triton X-100), containing the Fluorescein labelled peptide (Final concentration 2 nM) and Mcl-1 protein (final concentration 20 nM) was then added. […] 10-points dose response curves were plotted with GraphPad software using Sigmoidal Dose-Response Model and the IC50 values were determined by nonlinear regression fitting of the competition curves.
For orientation: Polarisation of emitted light reports the rotation of a fluorescent probe.

The next assay relates to NCI-H929 cells. Briefly: Cell viability assay (NCI-H929 cells), CCK-8. As to conditions: Homo sapiens, NCI-H929, 24 h, WST, 5% FBS. In kind it is cell-based. Here is the method: Cell Viability Assay (NCI-H929 Cells)
NCI-H929 cells were obtained from American Type Culture Collection (ATCC). Cells were maintained in the recommended culture medium (RPMI 1640) with 10% FBS and 0.05 mM BME at 37° C. and an atmosphere of 5% CO2.
The effect of Compounds on cell viability was determined using Cell Counting Kit-8 (CCK-8) assay according to the manufacturer's instructions. 95 μL of NCI-H929 cell suspension (20000 cells/well) in culture medium were seeded into 96-well plates and cultured 4 hrs. Each tested compound was serially diluted in DMSO, then 5 μL of the compound or DMSO was diluted in 95 μL medium once more. At last, 5 μL of the compound dilution was added to the corresponding well of the cell plate. After the addition of the tested compound, the cells were incubated at 37° C. in an atmosphere of 5% CO2 for 24 hrs. At the end, 10 μL of CCK-8 solution was added to each well of the plate and incubated for 1-4 hours. The plates were read at 450 nm on the microplate reader (BioTek Synergy 1MF). The readings were normalized to the vehicle cells, and the IC50 was calculated by nonlinear regression analysis using GraphPad Prism 6 software.

Consider 13 molecules from US12319703B2, “Macrocyclic fused pyrazoles as Mcl-1 inhibitors” (ASCENTAGE PHARMA (SUZHOU) CO., LTD., priority 2019, dated 2025).

T1 sequence (Q07820 171-323): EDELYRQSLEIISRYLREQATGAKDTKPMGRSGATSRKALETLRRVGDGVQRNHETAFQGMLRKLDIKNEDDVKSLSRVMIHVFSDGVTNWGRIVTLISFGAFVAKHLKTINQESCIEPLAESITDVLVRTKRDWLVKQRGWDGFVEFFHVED

Regarding `Cn1nc2cc1CSc1cc(c3ccc(Cl)cc3c1)OCCCc1c(C(=O)O)n(C)c3c(c(Cl)ccc13)-c1c(nn3c1COCC3)CSC2` [compound 19, (Z)-1^6,9^6-dichloro-1^1,6^1-dimethyl-2^6,2^7-dihydro-1^1H,2^4H,6^1H-10-oxa-4,8-dithia-2(3,2)-pyrazolo[5,1-c][1,4]oxazina-1(7,3)-indola-6(3,5)-pyrazola-9(3,1)-naphthalenacyclotridecaphane-1^2-carboxylic acid], the figures for the IC50 (in the assay on OPM-2 cells; in assay [1]; with NCI-H929 cells) were 384 nM, 16 nM and 250 nM, respectively.
On to `Cn1nc2cc1CSc1cc(c3ccccc3c1)OCCCc1c(C(=O)O)n(C)c3c(c(Cl)ccc13)-c1c(nn3c1CCCC3)CSC2` [compound 20, (Z)-1^6-chloro-1^1,6^1-dimethyl-2^4,2^5,2^6,2^7-tetrahydro-1^1H,6^1H-10-oxa-4,8-dithia-2(3,2)-pyrazolo[1,5-a]pyridina-1(7,3)-indola-6(3,5)-pyrazola-9(3,1)-naphthalenacyclotridecaphane-1^2-carboxylic acid], for which the IC50 in the assay with OPM-2 cells worked out at 174 nM; in assay [1], 15.2 nM; in the assay with NCI-H929 cells it was 49 nM.
With `Cn1nc2cc1CSc1cc(c3ccccc3c1)OCCCc1c(C(=O)O)n(C)c3c(c(Cl)ccc13)-c1c(nn3c1OCCC3)CSC2` [compound 22, (Z)-1^6-chloro-1^1,61-dimethyl-2^6,2^7-dihydro-1^1H,2^5H,6^1H-10-oxa-4,8-dithia-2(3,2)-pyrazolo[5,1-b][1,3]oxazina-1(7,3)-indola-6(3,5)-pyrazola-9(3,1)-naphthalenacyclotridecaphane-1^2-carboxylic acid], the IC50 with OPM-2 cells was 1150 nM; in assay [1], 15.9 nM; with NCI-H929 cells it was 225 nM.
The like results for `Cn1nc2cc1CSc1cc(c3ccccc3c1)OCCCc1c(C(=O)O)n(C)c3c(c(Cl)ccc13)-c1c(nn3c1CN(S(C)(=O)=O)CC3)CSC2` [compound 25, (Z)-1^6-chloro-1^1,6^1-dimethyl-2^5-(methylsulfonyl)-2^4,2^5,2^6,2^7-tetrahydro-1^1H,6^1H-10-oxa-4,8-dithia-2(3,2)-pyrazolo[1,5-a]pyrazina-1(7,3)-indola-6(3,5)-pyrazola-9(3,1)-naphthalenacyclotridecaphane-1^2-carboxylic acid] were, in that order, 9050 nM, 14.9 nM and 4970 nM.
As for `Cn1nc2cc1CSc1cc(c3ccc(F)cc3c1)OCCCc1c(C(=O)O)n(C)c3c(c(Cl)ccc13)-c1c(nn3c1CCCCC3)CSC2` [compound 28, (Z)-1^6-chloro-9^6-fluoro-1^1,6^1dimethyl-2^5,2^6,2^7,2^8-tetrahydro-1^1H,2^4H,6^1H-10-oxa-4,8-dithia-2(3,2)-pyrazolo[1,5-a]azepina-1(7,3)-indola-6(3,5)-pyrazola-9(3,1)-naphthalenacyclotridecaphane-1^2-carboxylic acid], the values for the IC50 (in the assay with OPM-2 cells; in assay [1]; with NCI-H929 cells) were 184 nM, 15.9 nM and 55 nM, respectively.
On the same counts, the results for `Cc1cc2ccc1CSCc1nn3c(c1-c1c(Cl)ccc4c(c(C(=O)O)n(C)c14)CCCOc1cc(cc4cc(F)ccc14)SC2)CCC3` [compound 29, 1^6-chloro-9^6-fluoro-1^1,6^2-dimethyl-2^5,2^6-dihydro-1^1H,2^4H-10-oxa-4,8-dithia-1(7,3)-indola-2(3,2)-pyrrolo[1,2-b]pyrazola-9(3,1)-naphthalena-6(1,4)-benzenacyclotridecaphane-1^2-carboxylic acid] are 348 nM, 14.9 nM and 158 nM.
Consider `Cn1c(C(=O)O)c2c3ccc(Cl)c(c31)-c1c(nn3c1CCC3)CSCc1ccc(cn1)CSc1cc(c3ccc(F)cc3c1)OCCC2` [compound 31, 1^6-chloro-9^6-fluoro-1^1-methyl-2^5,2^6-dihydro-1^1H,2^4H-10-oxa-4,8-dithia-1(7,3)-indola-2(3,2)-pyrrolo[1,2-b]pyrazola-6(2,5)-pyridina-9(3,1)-naphthalenacyclotridecaphane-1^2-carboxylic acid], for which the IC50 with OPM-2 cells came out at 125 nM; in assay [1], 14 nM; with NCI-H929 cells, 63 nM.
As to `CC(=O)N1Cc2cc(n(C)n2)CSc2cc(c3ccccc3c2)OCCCc2c(C(=O)O)n(C)c3c(c(Cl)ccc23)-c2c(nn(C)c2C)C1` [compound 35, (Z)-4-acetyl-1^6-chloro-1^1,2^1,2^5,6^1-tetramethyl-1^1H,2^1H,6^1H-10-oxa-8-thia-4-aza-1(7,3)-indola-2(4,3),6(3,5)-dipyrazola-9(3,1)-naphthalenacyclotridecaphane-1^2-carboxylic acid], the IC50 in the assay with OPM-2 cells was 763 nM; in assay [1] it was 16 nM; in the assay on NCI-H929 cells it was 215 nM.
On the same counts, the results for `Cn1nc2cc1CSc1cc(c3ccc(F)cc3c1)OCCCc1c(C(=O)O)n(C)c3c(c(Cl)ccc13)-c1c(nn3c1CCC3)CN(S(=O)(=O)Cc1ccccc1)C2` [compound 41, (Z)-4-(benzylsulfonyl)-1^6-chloro-9^6-fluoro-1,6^1-dimethyl-2^5,2^6-dihydro-1^1H,2^4H,6^1H-10-oxa-8-thia-4-aza-1(7,3)-indola-2(3,2)-pyrrolo[1,2-b]pyrazola-6(3,5)-pyrazola-9(3,1)-naphthalenacyclotridecaphane-1^2-carboxylic acid] are 327 nM, 12 nM and 366 nM.
Take `Cn1nc2cc1CSc1cc(c3ccc(F)cc3c1)OCCCc1c(C(=O)O)n(C)c3c(c(Cl)ccc13)-c1c(nn3c1COCC3)CN(S(C)(=O)=O)C2` [compound 42, (Z)-1^6-chloro-9^6-fluoro-1^1,6^1-dimethyl-4-(methylsulfonyl)-2^6,2^7-dihydro-1^1H,2^4H,6^1H-10-oxa-8-thia-4-aza-2(3,2)-pyrazolo[5,1-c][1,4]oxazina-1(7,3)-indola-6(3,5)-pyrazola-9(3,1)-naphthalenacyclotridecaphane-1^2-carboxylic acid]: the IC50 in the assay with OPM-2 cells was found to be 357 nM; in assay [1] it was 17 nM; with NCI-H929 cells, 261 nM.
The like results for `Cn1nc2cc1CSc1cc(c3ccc(F)cc3c1)OCCCc1c(C(=O)O)n(C)c3c(c(Cl)ccc13)-c1c(nn3c1COCC3)CN(S(=O)(=O)C1CC1)C2` [compound 43, (Z)-1^6-chloro-4-(cyclopropylsulfonyl)-9^6-fluoro-1^1,6^1-dimethyl-2^6,2^7-dihydro-1^1H,2^4H,6^1H-10-oxa-8-thia-4-aza-2(3,2)-pyrazolo[5,1-c][1,4]oxazina-1(7,3)-indola-6(3,5)-pyrazola-9(3,1)-naphthalenacyclotridecaphane-1^2-carboxylic acid] were, in that order, 451 nM, 12 nM and 190 nM.
Regarding `Cc1c2c(nn1C)CN(S(=O)(=O)C(F)(F)F)Cc1cc(n(C)n1)CSc1cc(c3ccc(F)cc3c1)OCCCc1c(C(=O)O)n(C)c3c-2c(Cl)ccc13` [compound 46, (Z)-1^6-chloro-9^6-fluoro-1^1,2^1,2^5,6^1-tetramethyl-4-((trifluoromethyl)sulfonyl)-1^1H,2^1H,6^1H-10-oxa-8-thia-4-aza-1(7,3)-indola-2(4,3),6(3,5)-dipyrazola-9(3,1)-naphthalenacyclotridecaphane-1^2-carboxylic acid], the IC50 stood at 49 nM with OPM-2 cells, 12 nM in assay [1] and 61 nM in the assay with NCI-H929 cells.
On the same counts, the results for `Cc1c2c(nn1C)CN(CCO)Cc1cc(n(C)n1)CSc1cc(c3ccccc3c1)OCCCc1c(C(=O)O)n(C)c3c-2c(Cl)ccc13` [compound 50, (Z)-1^6-chloro-4-(2-hydroxyethyl)-1^1,2^1,2^5,6^1-tetramethyl-1^1H,2^1H,6^1H-10-oxa-8-thia-4-aza-1(7,3)-indola-2(4,3), 6(3,5)-dipyrazola-9(3,1)-naphthalenacyclotridecaphane-1^2-carboxylic acid] are 388 nM, 20 nM and 66 nM.
